Measured values: patent publication US20230321101A1, “METHODS AND USES OF HALOFUGINONE” (The Regents of the University of California, priority 2020, published 2023)
“Also recorded” adds a separate entry of the source. Like-named read-outs stand apart in the source and are kept apart here.

Assays:
[1] = tested on: cell surface heparan sulfate of Hep3B cells; test: Heparan sulfate presentation by anti-HS mAb 10E4 staining of Hep3B cells; type: cell-based, human; conditions: for effect on halofuginone-induced reduction in heparan sulfate production (10E4 binding): co-incubated with halofuginone
[2] = tested on: recombinant SARS-CoV-2 spike RBD protein binding to Hep3B cells; conditions: for effect on halofuginone-induced reduction in spike protein binding: co-incubated with halofuginone; for decrease of SARS-CoV-2 RBD binding compared to excipient control (DMSO): 18 h
[3] = tested on: authentic SARS-CoV-2; test: microbe, parasite or virus in culture; type: cell-based; conditions: for effect on authentic SARS-CoV-2 infection: Vero E6; for IC50: Severe acute respiratory syndrome coronavirus 2, Vero C1008, read-out: IC50 of SARS-CoV-2 infection
[4] = tested on: HIV-1; test: HIV-1 antiviral immunofluorescence assay in HeLa Tzmbl cells; type: cell-based; conditions: HeLa Tzmbl
Experimental: (§1) Experimental Procedure. The antiviral activity of 8 dilutions of each compound was explored by adding the drug to the assay cells 2 h after infection with the different viruses. Virus and compounds were left on the cells for the entire duration of the experiment (28 h for Zika virus and 24 h for all other viruses). The cytotoxicity of the same range of concentrations of compounds was determined by LDH release assay in the same cell lines.
(§2) Cell plating. Cells were detached and counted following SOP-RA 003 and SOP-RA 004. Count was recorded in the Cell Count Logbook, Volume 1. For each virus four plates were seeded, two for the antiviral assay and two for the cytotoxicity assay. Cells were seeded in 100 μl/well of complete media at the following densities: • Huh7: 8,000 cells/well (Dengue) • SH-SY5Y: 10,000 cells/wells (Zika) • HeLa Tzmbl: 8,000 cells/well (HIV)
(§3) Compounds dilutions. The 22.1 mM stocks were further diluted to 1 mM in DMSO by adding 211 μl of DMSO to 10 μl of compound. Three serial dilutions were prepared in different media for different viruses/cells. For each dilution, drugs were prepared at twice the final concentration in 50 μl volume, because they are diluted to the final concentration by an equal volume of virus or media.
(§4) Infection. Cells were infected in 50 μl of supplemented media/well at the following multiplicity of infection (MOI): • DENV-2, MOI 1 • ZIKV, MOI 5 • HIV, MOI 0.5
(§5) After removing culture media from cells, 50 μl of virus dilution were added to all wells except Column 11 (uninfected control), where the same volume of supplemented media was added. […]
(§6) Infectivity readout. […] The primary antibodies were detected with an Alexa-488 conjugate secondary antibody (Life Technologies, A11001), and nuclei were stained with Hoechst. Images were acquired on a CellInsight CX5 high content platform (Thermo Scientific) using a 4× objective, and percentage infection calculated using CellInsight CX5 software (infected cells/total cells×100).
(§7) Determination of % Inhibition—IF assay. Normalized percentages of inhibition were calculated using the following formula: […]

[5] = tested on: ZIKV (Zika virus); test: ZIKV antiviral immunofluorescence assay in SH-SY5Y cells; type: cell-based
Experimental: as §1, §2, §3, §4, §5, §6, §7

[6] = tested on: DENV-2 (Dengue); test: DENV-2 antiviral immunofluorescence assay in Huh7 cells; type: cell-based
Experimental: as §1, §2, §3, §4, §5, §6, §7

[7] = ProSA at 50 μM, halofuginone 500 nM

SMILES | effect on heparan sulfate presentation (10E4 binding) [1] | effect on spike (RBD) protein binding [2] | effect on authentic SARS-CoV-2 infection [3] | other results
COc1cc2c(NC3CCN(C(C)C)CC3)nc(C3CCCCC3)nc2cc1OCCCN1CCCC1 [UNC0638] | increased the total amount of heparan sulfate |  |  | 
O=C(COc1ccc(Cl)cc1)NC1CCC(NC(=O)COc2ccc(Cl)cc2)CC1 (centres unmarked) [ISRIB] | Neither PERKi nor ISRIB affected 10E4 or spike RBD binding | Neither PERKi nor ISRIB affected 10E4 or spike RBD binding |  | effect on halofuginone-induced reduction in heparan sulfate production (10E4 binding) [1]: unable to attenuate the halofuginone-induced reduction in heparan sulfate production; also recorded: nor ISRIB reversed the halofuginone induced reduction in 10E4 or spike protein binding
Cn1cc(-c2ccc3c(c2)CCN3C(=O)Cc2cccc(C(F)(F)F)c2)c2c(N)ncnc21 [GSK2606414] | Neither PERKi nor ISRIB affected 10E4 or spike RBD binding | Neither PERKi nor ISRIB affected 10E4 or spike RBD binding |  | effect on halofuginone-induced reduction in heparan sulfate production (10E4 binding) [1]: reversed the halofuginone induced reduction in 10E4 or spike protein binding; effect on halofuginone-induced reduction in heparan sulfate production (10E4 binding) ([1]; listed as PERKi): unable to attenuate the halofuginone-induced reduction in heparan sulfate production; effect on halofuginone-induced reduction in spike protein binding [2]: reversed the halofuginone induced reduction in 10E4 or spike protein binding; effect on halofuginone-induced reduction in spike protein binding ([2]; listed as PERKi): unable to attenuate the halofuginone-induced reduction in heparan sulfate production and Spike protein binding
C[C@@H]1C[C@H](C)C[C@H](C)[C@@H](O)CC(=O)O[C@H]([C@@H]2CCC[C@H]2C(=O)O)C/C=C/C=C(/C#N)[C@H](O)[C@@H](C)C1 [borrelidin] | Inhibits HS production | Neither of these AARS inhibitors were able to significantly attenuate | Neither of these AARS inhibitors were able to significantly attenuate viral replication | effect on spike (RBD) protein binding ([2]; listed as Borrelidin): not SARS-CoV-2 Spike RBD protein binding
O=C(/C=C/c1cccc(S(=O)(=O)Nc2ccccc2)c1)NO [Belinostat] | increased 10E4 staining | reduced spike protein by more than two-fold |  | decrease of SARS-CoV-2 RBD binding compared to excipient control (DMSO) ([2]; 5 μM): ~50%
Nc1ncnc2c1ncn2[C@@H]1O[C@H](COS(=O)(=O)NC(=O)[C@@H]2CCCN2)[C@@H](O)[C@H]1O [ProSA, prolyl-sulfamoyl adenosine] |  |  | inhibited authentic SARS-CoV-2 infection of Vero E6 cells; also recorded: inhibit infection by authentic SARS-CoV-2 when provided at higher doses | effect on heparan sulfate presentation ([1]; 1 μM): unable to inhibit heparan sulfate inhibition and Spike protein binding; effect on HS presentation (mAb 10E4 stain) [1, 7]: prevented HS presentation and spike RBD binding to similar levels as treatment with halofuginone; effect on Spike protein binding ([2]; 1 μM): unable to inhibit heparan sulfate inhibition and Spike protein binding; effect on spike RBD binding [2, 7]: prevented HS presentation and spike RBD binding to similar levels as treatment with halofuginone
CCC(CC)COC(=O)[C@H](C)N[P@](=O)(OC[C@H]1O[C@@](C#N)(c2ccc3c(N)ncnn23)[C@H](O)[C@@H]1O)Oc1ccccc1 [Remdesivir] |  |  |  | IC50 [3]: 8000 nM
CCN(CC)CCCC(C)Nc1ccnc2cc(Cl)ccc12 (centres unmarked) [chloroquine] |  |  |  | IC50 [3]: 1900 nM
Nc1ncn([C@H]2C[C@H](O)[C@@H](CO)O2)c(=O)n1 [5-Azadeoxycitidine] | reduced heparan sulfate presentation |  |  | 
Nc1ncnc2c1ncn2C1OC(COS(=O)(=O)NC(=O)[C@@H](N)CO)[C@@H](O)[C@H]1O (some centres unmarked) [SerSA, seryl-sulfamoyl adenosine] |  | Neither of these AARS inhibitors were able to significantly attenuate | Neither of these AARS inhibitors were able to significantly attenuate viral replication | 
Nc1ncn([C@@H]2O[C@H](CO)[C@@H](O)[C@H]2O)c(=O)n1 [5-Azacytidine] | reduced heparan sulfate presentation |  |  | 
Nc1ncnc2c1c(I)cn2[C@@H]1O[C@H](CO)[C@@H](O)[C@H]1O [5-Iodotubercidin] | reduced heparan sulfate presentation |  |  | 
C/C=C1\NC(=O)[C@H]2CSSCC/C=C/[C@H](CC(=O)N[C@H](C(C)C)C(=O)N2)OC(=O)[C@H](C(C)C)NC1=O [Romidepsin] |  |  |  | decrease of SARS-CoV-2 RBD binding compared to excipient control (DMSO) ([2]; 1 μM): ~50%
O=c1c2cc(Cl)c(Br)cc2ncn1C[C@H](O)C[C@H]1NCCC[C@@H]1O [halofuginol] | significantly decreased 10E4 and spike RBD binding | significantly decreased 10E4 and spike RBD binding | inhibited authentic SARS-CoV-2 infection of Vero E6 cells; also recorded: inhibit infection by authentic SARS-CoV-2 when provided at higher doses | EC50 ([4]; MOI 0.5, drug added 2 h after infection, 24 h, read-out: EC50 HIV-1): 344 nM; antiviral activity against ZIKV [5]: antiviral activity only against HIV-1; inhibition of DENV-2 ([6]; Huh7, highest concentration tested (1000 nM)): ~60%
CC(C)(C)OC(=O)N1CCCC(O)[C@H]1CC(=O)Cn1cnc2cc(Br)c(Cl)cc2c1=O (some centres unmarked) |  |  |  | antiviral activity against HIV-1 [4]: did not display antiviral activity; antiviral activity against ZIKV [5]: did not display antiviral activity; antiviral activity against DENV-2 ([6]; Huh7): did not display antiviral activity
CNC(=O)Nc1ccc2c(c1)CC[C@@]21OC(=O)N(CC(=O)N(Cc2ccc(F)cc2)[C@@H](C)C(F)(F)F)C1=O [A-485] | reduced heparan sulfate presentation |  |  | 
c1nn(C2CCOCC2)cc1Nc1ncc2nnn(-c3ccc4cn[nH]c4c3)c2n1 [GCN2-IN-1] | reduced in heparan sulfate production; also recorded: reduced 10E4 and spike RBD binding almost to the same extent as halofuginone |  |  | effect on halofuginone-induced reduction in heparan sulfate production (10E4 binding) [1]: reversed the halofuginone induced reduction in 10E4 or spike protein binding; effect on halofuginone-induced reduction in spike protein binding [2]: reversed the halofuginone induced reduction in 10E4 or spike protein binding
O=C(CC1NCCCC1O)Cn1cnc2cc(Br)c(Cl)cc2c1=O (single isomer, unassigned) [2S,3R-(−)enantiomer] |  |  | No inhibition was observed | 
CC(C)(C)OC(=O)N1CCC[C@H](O)[C@H]1CC(=O)Cn1cnc2cc(Br)c(Cl)cc2c1=O [MAZ1310] | had no effect | had no effect | did not have any activity | 
